For this test, the target named is T1, BRCA1-associated ATM activator 1 (BRAT1) (Homo sapiens, UniProt Q6PJG6).
T1 sequence (Q6PJG6 1-821): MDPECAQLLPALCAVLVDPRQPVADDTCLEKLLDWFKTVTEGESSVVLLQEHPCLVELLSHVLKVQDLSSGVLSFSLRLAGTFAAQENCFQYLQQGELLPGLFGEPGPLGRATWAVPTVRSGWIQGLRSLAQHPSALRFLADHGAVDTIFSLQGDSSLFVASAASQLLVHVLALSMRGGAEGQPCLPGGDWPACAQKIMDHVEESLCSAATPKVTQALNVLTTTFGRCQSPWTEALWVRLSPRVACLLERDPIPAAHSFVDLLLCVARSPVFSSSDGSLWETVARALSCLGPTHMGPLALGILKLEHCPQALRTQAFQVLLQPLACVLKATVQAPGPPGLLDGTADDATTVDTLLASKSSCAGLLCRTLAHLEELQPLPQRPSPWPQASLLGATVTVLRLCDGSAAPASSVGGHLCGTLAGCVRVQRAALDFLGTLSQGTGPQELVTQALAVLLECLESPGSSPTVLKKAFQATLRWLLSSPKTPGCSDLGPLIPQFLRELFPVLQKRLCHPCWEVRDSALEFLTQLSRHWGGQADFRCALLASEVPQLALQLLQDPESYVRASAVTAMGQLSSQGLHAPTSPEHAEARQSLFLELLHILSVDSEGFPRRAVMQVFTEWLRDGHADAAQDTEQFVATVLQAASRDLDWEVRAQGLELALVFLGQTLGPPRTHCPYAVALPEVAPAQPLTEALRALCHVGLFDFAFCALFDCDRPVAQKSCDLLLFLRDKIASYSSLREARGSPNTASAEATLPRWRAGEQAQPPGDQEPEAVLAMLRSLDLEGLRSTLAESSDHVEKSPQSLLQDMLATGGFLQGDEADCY
In kind it is cell-based.

Experimental findings from paper PMC8281983 (Journal of the American Chemical Society, 2021) are described below.

What is called EC50 is the midpoint of the concentration-response curve. Lower therefore signals an effect from little substance.

`C=C(C)C1CCC(=C)C2C3=C(C[C@@](C)(O)C3=O)C(=O)C(C)=C[C@@H]12` (stereo partly shown) [1d, curcusone D] had an EC50 of 2700 nM.
